Data reported in PubChem BioAssay AID1963420 (Molecular Pharmacology Branch, DTP, NCI, 2024).
pIC50: −log10 of the molar value. “And” between values parts separate entries of the source, which are not always exact repeats. Equal values may be shown once.

Tested on: 494315-158-R-J1-PDC complex spheroid growth, percent test/control
Test: Anticancer human tumor 494315-158-R-J1-PDC patient-derived soft tissue sarcoma cell line growth inhibition [Asc]
Conditions: for viability, T/C: stronger effect = lower value; active = viability on the fitted dose curve at most 10% of control; inactive = the rest
Method: Multicellular complex tumor spheroid response to apoptosis pathway targeting inhibitors Alrizomadlin, Pelcitoclax, and Dasminapant in combination with a variety of drugs and investigational agents in selected tumor cell lines
The MDM2 inhibitor alrizomadlin, the Bcl-2/Bcl-xL inhibitor pelcitoclax, and the IAPs inhibitor dasminapant were evaluated both individually and in combination with standard of care and investigational anticancer small molecules within a complex spheroid model of solid tumors. . Complex spheroids include a stromal component modeled by human endothelial cells (HUVEC) and fibroblasts modeled by human mesenchymal stem cells (MSCs). The concentration ranges selected for each drug and investigational agent were based upon clinically achievable concentrations if the clinical Cmax of the agent was known.
Compounds. The drugs and investigational agents: alrizomadlin (APG-115; NSC831270), pelcitoclax (APG-1252; NSC835773), dasminapant (APG-1387;NSC834197), TAK-243 (NSC785004), copanlisib (NSC809693), olaparib (NSC753686), talazoparib (NSC767125), cobimetinib (NSC 768068), eltanexor (KPT-8602, NSC 794443), abemaciclib (NSC 768073), sotorasib (NSC818433), adagrasib (NSC 831453), MRTX-1133 (NSC 836407), Iadademestat (ORY1001, NSC 806812), and RMC-4630 (NSC839698), were obtained from the NCI Developmental Therapeutics Program Chemical Repository. The FDA-approved anticancer drug set is available from the Developmental Therapeutics Program at https://dtp.cancer.gov/organization/dscb/obtaining/available plates.htm. […] The stock solutions were prepared in dimethyl sulfoxide (DMSO, Sigma-Aldrich, St. Louis, MO, cat. D2650) at 800-fold the tested concentration and stored at -70 degrees C prior to their use. All drugs and investigational agents were tested over a range starting from a high concentration at or near the clinical Cmax and decreasing in half-log increments. If the clinical Cmax for an agent had not been determined, the highest concentration tested was 10 microM.
The patient-derived cancer (PDC) cell lines include five colon adenocarcinomas: 186277-243-T-J2-PDC, 616215-338-R-J1-PDC, 439559-082-T-J2-PDC, 463943-066-T-J2-PDC, and 519858-162-T-J1-PDC; three pancreatic carcinomas: 323965-272-R-J2-PDC, 521955-158-R6-J3-PDC, and 521955-158-R2-J5-PDC; two uterine sarcomas: 327498-152-R-J2-PDC and 993429-296-R-J1-PDC; two rhabdomyosarcomas: 755483-174-R-J1-PDC and 772245-204-R-J1-PDC; two soft tissue sarcomas: 126254-015-R-J1-PDC and 494315-158-R-J1-PDC; two malignant fibrous histiocytomas: 317291-083-R-J1-PDC and 596521-263-R-J1-PDC; two breast carcinomas: 171881-019-R-J1-PDC and 885512-296-R-J2-PDC; and one ovarian carcinoma: 6556581-035-R-J-PDC were obtained from the NCI PDMR, (https://pdmr.cancer.gov). The established cell lines HSSY-2 synovial sarcoma (RRID:CVCL 8719), SYO-1 synovial sarcoma (RRID:CVCL_7146), MPNST malignant peripheral neural sheath tumor were obtained from the Sloan Kettering Institute. The following established cell lines were purchased from the American Type Culture Collection (ATCC, Manassas, VA), Sor the received from the NCI repository:, PANC-1 pancreatic carcinoma (CRL-1469, RRID:CVCL_0480), OVCAR-5 ovarian carcinoma (RRID:CVCL_1628), OVCAR-8 ovarian carcinoma (RRID:CVCL_1629), , MCF-7 breast carcinoma (CRL-12584, RRID:CVCL_0031), MDA-MB-231 breast carcinoma (CRL-12532, RRID:CVCL_0062), NCI-H1876 small cell lung carcinoma (CRL-5902, RRID:CVCL_1503), NCI-H510A small cell lung carcinoma (HTB-184, RRID:CVCL_1565), NCI-H1417 (CRL-5869, RRID:CVCL_1469), and NCI-H196 small cell lung carcinoma (CRL-5823, RRID:CVCL_1509). Dr. Peter Houghton (Greehey Children's Cancer Research Institute, University of Texas Health Science Center, San Antonio, TX) provided Rh-18 rhabdomyosarcoma (RRID:CVCL_1659). Pooled donor human umbilical vein endothelial cells (HUVEC, Lonza, cat. CC-2519) and human mesenchymal stem cells (hMSC, Lonza, cat. PT-2501) were purchased from Lonza (Walkersville, MD).
Cell Culture. […]
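Also: compound exposure lasted seven days after spheroids formed for three days.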

COc1c(OCCCN2CCOCC2)ccc2c3n(c(=NC(=O)c4cnc(N)nc4)nc12)CCN3
7.32 and 7.34 and 7.36: pIC50 (curve of compound)
inactive: viability, T/C (compound 0.00316 µM) 87.8% and 87% and 82.3% | viability, T/C (compound 0.01 µM) 79.6% and 80.4% and 82.8% | viability, T/C (compound 0.0316 µM) 56.8% and 58.9% and 54.3% | viability, T/C (compound 0.1 µM) 37% and 32% and 34% | viability, T/C (compound 0.316 µM) 20.7% and 21.1% and 18% | viability, T/C (compound 1 µM) 16.9% and 20.5% and 16.8%

CNC(C)C(=O)NC1CN(S(=O)(=O)c2cccc(S(=O)(=O)N3CCC4CCC(C(=O)NC(c5ccccc5)c5ccccc5)N4C(=O)C(NC(=O)C(C)NC)C3)c2)CCC2CCC(C(=O)NC(c3ccccc3)c3ccccc3)N2C1=O (centres undefined)
7.34 and 7.54: pIC50 (curve of compound)
inactive: viability, T/C (compound 0.00316 µM) 79% and 74.7% | viability, T/C (compound 0.01 µM) 69.1% [middle of 15 runs] | viability, T/C (compound 0.0316 µM) 58.5% [middle of 15 runs] | viability, T/C (compound 0.1 µM) 51.9% [middle of 15 runs] | viability, T/C (compound 0.316 µM) 45% [middle of 15 runs] | viability, T/C (compound 1 µM) 39.2% [middle of 15 runs]

NC(=O)C(=Cn1cnc(-c2cc(C(F)(F)F)cc(C(F)(F)F)c2)n1)c1cncnc1 + CNC(C)C(=O)NC1CN(S(=O)(=O)c2cccc(S(=O)(=O)N3CCC4CCC(C(=O)NC(c5ccccc5)c5ccccc5)N4C(=O)C(NC(=O)C(C)NC)C3)c2)CCC2CCC(C(=O)NC(c3ccccc3)c3ccccc3)N2C1=O
8.00: pIC50 (curve of first compound, second compound 0.1 µM)
7.92: pIC50 (curve of first compound, second compound 0.0316 µM)
7.30: pIC50 (curve of first compound, second compound 0.01 µM)
active: viability, T/C (second compound 0.01 µM, first compound 0.3 µM) 7.92% | viability, T/C (second compound 0.0316 µM, first compound 0.3 µM) 7.91% | viability, T/C (second compound 0.1 µM, first compound 0.3 µM) 5.3% | viability, T/C (second compound 0.316 µM, first compound 0.3 µM) 5.39% | viability, T/C (second compound 1 µM, first compound 0.3 µM) 6.84%
inactive: viability, T/C (second compound 0.01 µM, first compound 0.000949 µM) 73.4% | viability, T/C (second compound 0.01 µM, first compound 0.003 µM) 70.6% | viability, T/C (second compound 0.01 µM, first compound 0.00949 µM) 59.4% | viability, T/C (second compound 0.01 µM, first compound 0.03 µM) 54.2% | viability, T/C (second compound 0.01 µM, first compound 0.0949 µM) 46.8% | viability, T/C (second compound 0.0316 µM, first compound 0.000949 µM) 58.4% | viability, T/C (second compound 0.0316 µM, first compound 0.003 µM) 58.8% | viability, T/C (second compound 0.0316 µM, first compound 0.00949 µM) 51.9% | viability, T/C (second compound 0.0316 µM, first compound 0.03 µM) 41.4% | viability, T/C (second compound 0.0316 µM, first compound 0.0949 µM) 27.8% | viability, T/C (second compound 0.1 µM, first compound 0.000949 µM) 51% | viability, T/C (second compound 0.1 µM, first compound 0.003 µM) 64.5% | viability, T/C (second compound 0.1 µM, first compound 0.00949 µM) 46.6% | viability, T/C (second compound 0.1 µM, first compound 0.03 µM) 39.5% | viability, T/C (second compound 0.1 µM, first compound 0.0949 µM) 23.5% | viability, T/C (second compound 0.316 µM, first compound 0.000949 µM) 49.3% | viability, T/C (second compound 0.316 µM, first compound 0.003 µM) 50.1% | viability, T/C (second compound 0.316 µM, first compound 0.00949 µM) 43.8% | viability, T/C (second compound 0.316 µM, first compound 0.03 µM) 33.6% | viability, T/C (second compound 0.316 µM, first compound 0.0949 µM) 24.4% | viability, T/C (second compound 1 µM, first compound 0.000949 µM) 35.7% | viability, T/C (second compound 1 µM, first compound 0.003 µM) 36.7% | viability, T/C (second compound 1 µM, first compound 0.00949 µM) 40.4% | viability, T/C (second compound 1 µM, first compound 0.03 µM) 35.8% | viability, T/C (second compound 1 µM, first compound 0.0949 µM) 21.8%
8.90: pIC50 (curve of first compound, second compound 0.316 µM)
> 9.02: pIC50 (curve of first compound, second compound 1 µM)
